Reference: patent US12522583B2, “Benzimidazole derivatives and aza-benzimidazole derivatives as Janus kinase 2 inhibitors and uses thereof” (Dana-Farber Cancer Institute, Inc., priority 2018, dated 2026)

Key:
Experiment in all cases: KINOMEscan
Type in all cases: binding
Conditions in all cases: read-out: percent control
LTK = LTK (Homo sapiens (Human), UniProt P29376)
Text: (§1) Example 2. In Vitro Kinase Selectivity Profiling of the Compounds of the Present Disclosure

MEK5 = MEK5 (Homo sapiens (Human), UniProt Q13163)
Text: as §1

NIK = NIK (Homo sapiens (Human), UniProt Q99558)
Text: as §1

ITK = ITK (Homo sapiens (Human), UniProt Q08881)
Text: as §1

LATS1 = LATS1 (Homo sapiens (Human), UniProt O95835)
Text: as §1

FLT3(D835V) = FLT3(D835V) (Homo sapiens (Human), UniProt P36888, D835V)
Text: as §1

MTOR = MTOR (Homo sapiens (Human), UniProt P42345)
Text: as §1

KIT(L576P) = KIT(L576P) (Homo sapiens (Human), UniProt P10721, L576P)
Text: as §1

STK36 = STK36 (Homo sapiens (Human), UniProt Q9NRP7)
Text: as §1

ASK1 = ASK1 (Homo sapiens (Human), UniProt Q99683)
ASK1, sequence (Q99683 whole entry): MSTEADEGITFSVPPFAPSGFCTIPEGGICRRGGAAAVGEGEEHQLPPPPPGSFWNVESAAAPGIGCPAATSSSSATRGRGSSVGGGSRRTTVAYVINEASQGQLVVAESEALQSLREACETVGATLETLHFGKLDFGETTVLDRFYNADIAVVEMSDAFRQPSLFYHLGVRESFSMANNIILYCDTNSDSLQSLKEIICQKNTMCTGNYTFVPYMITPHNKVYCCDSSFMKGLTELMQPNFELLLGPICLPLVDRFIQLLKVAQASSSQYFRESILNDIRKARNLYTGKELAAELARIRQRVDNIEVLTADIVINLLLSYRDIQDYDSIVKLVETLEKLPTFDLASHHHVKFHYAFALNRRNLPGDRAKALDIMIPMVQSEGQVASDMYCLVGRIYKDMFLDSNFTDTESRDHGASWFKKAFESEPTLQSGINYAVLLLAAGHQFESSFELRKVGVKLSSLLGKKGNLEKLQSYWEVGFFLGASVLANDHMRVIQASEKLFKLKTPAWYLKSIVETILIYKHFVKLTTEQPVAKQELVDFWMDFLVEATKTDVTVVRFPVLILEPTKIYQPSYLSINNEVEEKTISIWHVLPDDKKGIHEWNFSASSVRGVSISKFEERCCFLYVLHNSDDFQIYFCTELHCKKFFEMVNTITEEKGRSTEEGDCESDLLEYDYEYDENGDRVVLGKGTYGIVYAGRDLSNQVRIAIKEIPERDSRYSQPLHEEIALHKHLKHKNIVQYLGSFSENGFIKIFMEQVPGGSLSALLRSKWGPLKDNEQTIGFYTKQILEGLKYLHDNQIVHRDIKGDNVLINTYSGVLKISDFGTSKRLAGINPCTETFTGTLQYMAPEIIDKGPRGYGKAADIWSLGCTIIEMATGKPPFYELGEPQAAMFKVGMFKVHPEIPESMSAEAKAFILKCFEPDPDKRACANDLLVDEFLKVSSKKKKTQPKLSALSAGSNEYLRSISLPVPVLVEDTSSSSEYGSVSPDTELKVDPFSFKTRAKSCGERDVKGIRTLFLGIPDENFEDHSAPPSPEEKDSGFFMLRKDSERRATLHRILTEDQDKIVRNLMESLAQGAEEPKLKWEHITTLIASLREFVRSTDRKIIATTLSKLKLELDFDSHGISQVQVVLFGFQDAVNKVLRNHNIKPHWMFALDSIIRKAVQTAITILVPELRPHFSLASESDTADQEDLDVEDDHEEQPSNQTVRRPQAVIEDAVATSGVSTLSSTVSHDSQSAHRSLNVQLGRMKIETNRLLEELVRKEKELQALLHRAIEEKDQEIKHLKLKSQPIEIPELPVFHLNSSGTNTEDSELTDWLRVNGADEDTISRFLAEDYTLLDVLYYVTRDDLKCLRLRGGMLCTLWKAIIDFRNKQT
Text: as §1

MLCK = MLCK (Homo sapiens (Human), UniProt Q32MK0)
Text: as §1

FLT3(K663Q) = FLT3(K663Q) (Homo sapiens (Human), UniProt P36888, K663Q)
Text: as §1

LRRK2 = LRRK2 (Homo sapiens (Human), UniProt Q5S007)
Text: as §1

[1] = target: RPS6KA5(Kin.Dom.2-C-terminal) (Homo sapiens (Human), UniProt O75582)
Text: as §1

LYN = LYN (Homo sapiens (Human), UniProt P07948)
LYN, sequence (P07948 whole entry): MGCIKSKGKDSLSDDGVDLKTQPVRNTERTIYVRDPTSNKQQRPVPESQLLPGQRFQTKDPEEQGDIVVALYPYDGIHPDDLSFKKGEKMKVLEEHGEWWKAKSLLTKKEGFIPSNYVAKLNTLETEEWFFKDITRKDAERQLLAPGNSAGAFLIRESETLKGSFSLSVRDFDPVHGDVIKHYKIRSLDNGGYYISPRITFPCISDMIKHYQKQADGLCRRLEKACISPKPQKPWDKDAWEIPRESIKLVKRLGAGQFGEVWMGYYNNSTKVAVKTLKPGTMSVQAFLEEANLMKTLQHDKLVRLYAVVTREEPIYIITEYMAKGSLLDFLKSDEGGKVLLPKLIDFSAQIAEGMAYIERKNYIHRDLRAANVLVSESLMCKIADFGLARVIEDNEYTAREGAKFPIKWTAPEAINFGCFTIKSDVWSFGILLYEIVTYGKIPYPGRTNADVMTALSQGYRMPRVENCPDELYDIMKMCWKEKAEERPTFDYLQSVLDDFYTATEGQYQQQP
Text: as §1

GRK3 = GRK3 (Homo sapiens (Human), UniProt P35626)
Text: as §1

PAK3 = PAK3 (Homo sapiens (Human), UniProt O75914)
Text: as §1

LATS2 = LATS2 (Homo sapiens (Human), UniProt Q9NRM7)
Text: as §1

MAP4K5 = MAP4K5 (Homo sapiens (Human), UniProt Q9Y4K4)
Text: as §1

TAOK1 = TAOK1 (Homo sapiens (Human), UniProt Q7L7X3)
Text: as §1

NEK9 = NEK9 (Homo sapiens (Human), UniProt Q8TD19)
NEK9, sequence (Q8TD19 whole entry): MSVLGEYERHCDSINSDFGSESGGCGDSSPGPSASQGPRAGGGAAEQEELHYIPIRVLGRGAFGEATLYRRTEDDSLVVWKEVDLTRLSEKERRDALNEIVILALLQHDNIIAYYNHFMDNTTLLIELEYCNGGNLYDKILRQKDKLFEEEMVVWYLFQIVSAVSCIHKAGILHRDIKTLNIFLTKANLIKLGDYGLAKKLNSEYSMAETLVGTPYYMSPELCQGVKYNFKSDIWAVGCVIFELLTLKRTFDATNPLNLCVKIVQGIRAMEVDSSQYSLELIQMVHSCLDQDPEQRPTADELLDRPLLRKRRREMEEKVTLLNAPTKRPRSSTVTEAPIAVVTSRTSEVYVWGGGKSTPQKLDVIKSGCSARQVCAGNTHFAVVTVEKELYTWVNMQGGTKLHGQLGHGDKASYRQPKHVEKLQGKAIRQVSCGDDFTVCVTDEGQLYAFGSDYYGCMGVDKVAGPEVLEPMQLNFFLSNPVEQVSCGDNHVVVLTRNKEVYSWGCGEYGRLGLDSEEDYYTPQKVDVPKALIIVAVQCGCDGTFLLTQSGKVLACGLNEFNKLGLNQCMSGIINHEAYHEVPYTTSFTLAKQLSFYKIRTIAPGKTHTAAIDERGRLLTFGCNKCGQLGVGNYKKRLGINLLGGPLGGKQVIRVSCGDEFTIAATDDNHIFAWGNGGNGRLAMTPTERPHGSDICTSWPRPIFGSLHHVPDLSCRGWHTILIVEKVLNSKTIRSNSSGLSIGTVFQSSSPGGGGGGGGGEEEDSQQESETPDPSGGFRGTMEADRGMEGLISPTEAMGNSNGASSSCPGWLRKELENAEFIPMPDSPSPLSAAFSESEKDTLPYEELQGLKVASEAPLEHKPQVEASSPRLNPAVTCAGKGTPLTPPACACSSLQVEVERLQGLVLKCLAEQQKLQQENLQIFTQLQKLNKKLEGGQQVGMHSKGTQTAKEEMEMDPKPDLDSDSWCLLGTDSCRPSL
Text: as §1

MLK1 = MLK1 (Homo sapiens (Human), UniProt P80192)
MLK1, sequence (P80192 whole entry): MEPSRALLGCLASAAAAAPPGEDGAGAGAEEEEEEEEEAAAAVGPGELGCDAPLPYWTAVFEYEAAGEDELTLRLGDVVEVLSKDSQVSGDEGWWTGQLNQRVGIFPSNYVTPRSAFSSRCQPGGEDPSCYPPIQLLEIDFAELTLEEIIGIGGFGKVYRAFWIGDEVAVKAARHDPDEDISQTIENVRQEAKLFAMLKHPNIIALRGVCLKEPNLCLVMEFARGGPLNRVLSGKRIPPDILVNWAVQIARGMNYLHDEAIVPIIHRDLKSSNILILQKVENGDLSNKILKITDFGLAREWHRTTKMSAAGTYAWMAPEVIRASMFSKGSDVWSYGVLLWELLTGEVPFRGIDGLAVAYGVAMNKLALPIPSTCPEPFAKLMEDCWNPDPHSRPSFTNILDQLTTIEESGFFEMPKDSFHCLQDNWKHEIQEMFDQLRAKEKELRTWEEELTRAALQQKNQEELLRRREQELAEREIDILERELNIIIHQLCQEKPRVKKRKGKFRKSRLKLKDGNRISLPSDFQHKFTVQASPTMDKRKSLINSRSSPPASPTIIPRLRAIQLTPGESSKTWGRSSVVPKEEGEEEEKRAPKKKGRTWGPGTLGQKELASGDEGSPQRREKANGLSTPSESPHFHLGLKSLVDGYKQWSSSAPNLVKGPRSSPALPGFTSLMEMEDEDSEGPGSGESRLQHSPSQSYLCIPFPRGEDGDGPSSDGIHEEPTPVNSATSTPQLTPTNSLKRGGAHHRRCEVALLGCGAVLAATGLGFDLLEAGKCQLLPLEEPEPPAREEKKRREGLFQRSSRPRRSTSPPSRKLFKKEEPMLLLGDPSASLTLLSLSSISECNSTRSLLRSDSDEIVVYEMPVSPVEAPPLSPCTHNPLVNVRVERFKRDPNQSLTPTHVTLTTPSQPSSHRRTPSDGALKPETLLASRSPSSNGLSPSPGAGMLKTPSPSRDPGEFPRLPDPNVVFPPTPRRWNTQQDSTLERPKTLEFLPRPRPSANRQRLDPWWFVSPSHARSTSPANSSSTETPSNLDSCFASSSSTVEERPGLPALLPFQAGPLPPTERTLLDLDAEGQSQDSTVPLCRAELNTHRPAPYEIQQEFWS
Text: as §1

YES = YES (Homo sapiens (Human), UniProt P07947)
Text: as §1

VPS34 = VPS34 (Homo sapiens (Human), UniProt Q8NEB9)
Text: as §1

MAP3K2 = MAP3K2 (Homo sapiens (Human), UniProt Q9Y2U5)
MAP3K2, sequence (Q9Y2U5 whole entry): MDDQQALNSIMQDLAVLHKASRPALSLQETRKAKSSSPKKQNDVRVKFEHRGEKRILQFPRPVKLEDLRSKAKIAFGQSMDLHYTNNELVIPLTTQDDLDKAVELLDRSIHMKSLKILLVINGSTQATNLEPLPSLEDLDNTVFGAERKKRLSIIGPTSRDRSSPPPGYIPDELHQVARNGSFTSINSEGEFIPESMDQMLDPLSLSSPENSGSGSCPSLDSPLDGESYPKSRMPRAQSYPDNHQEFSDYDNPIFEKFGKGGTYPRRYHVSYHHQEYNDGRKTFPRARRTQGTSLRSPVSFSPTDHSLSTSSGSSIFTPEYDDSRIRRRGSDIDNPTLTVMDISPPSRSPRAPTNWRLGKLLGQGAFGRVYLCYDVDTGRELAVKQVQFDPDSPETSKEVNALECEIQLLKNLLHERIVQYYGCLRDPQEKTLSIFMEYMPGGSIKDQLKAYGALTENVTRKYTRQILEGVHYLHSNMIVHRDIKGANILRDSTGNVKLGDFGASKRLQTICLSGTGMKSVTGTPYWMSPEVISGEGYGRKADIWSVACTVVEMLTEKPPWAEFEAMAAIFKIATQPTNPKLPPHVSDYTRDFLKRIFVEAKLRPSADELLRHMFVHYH
Text: as §1

STK35 = STK35 (Homo sapiens (Human), UniProt Q8TDR2)
Text: as §1

GSK3A = GSK3A (Homo sapiens (Human), UniProt P49840)
Text: as §1

ERK8 = ERK8 (Homo sapiens (Human), UniProt Q8TD08)
Text: as §1

ABL2 = ABL2 (Homo sapiens (Human), UniProt P42684)
Text: as §1

CDK9 = CDK9 (Homo sapiens (Human), UniProt P50750)
Text: as §1

GAK = GAK (Homo sapiens (Human), UniProt O14976)
Text: as §1

PRKCH = PRKCH (Homo sapiens (Human), UniProt P24723)
Text: as §1

MAST1 = MAST1 (Homo sapiens (Human), UniProt Q9Y2H9)
Text: as §1

PIK3CA(I800L) = PIK3CA(I800L) (Homo sapiens (Human), UniProt P42336, I800L)
Text: as §1

MAP4K2 = MAP4K2 (Homo sapiens (Human), UniProt Q12851)
Text: as §1

EGFR(G719S) = EGFR(G719S) (Homo sapiens (Human), UniProt P00533, G719S)
Text: as §1

FLT3 = FLT3 (Homo sapiens (Human), UniProt P36888)
Text: as §1

SRPK2 = SRPK2 (Homo sapiens (Human), UniProt P78362)
Text: as §1

CDK8 = CDK8 (Homo sapiens (Human), UniProt P49336)
CDK8, sequence (P49336 whole entry): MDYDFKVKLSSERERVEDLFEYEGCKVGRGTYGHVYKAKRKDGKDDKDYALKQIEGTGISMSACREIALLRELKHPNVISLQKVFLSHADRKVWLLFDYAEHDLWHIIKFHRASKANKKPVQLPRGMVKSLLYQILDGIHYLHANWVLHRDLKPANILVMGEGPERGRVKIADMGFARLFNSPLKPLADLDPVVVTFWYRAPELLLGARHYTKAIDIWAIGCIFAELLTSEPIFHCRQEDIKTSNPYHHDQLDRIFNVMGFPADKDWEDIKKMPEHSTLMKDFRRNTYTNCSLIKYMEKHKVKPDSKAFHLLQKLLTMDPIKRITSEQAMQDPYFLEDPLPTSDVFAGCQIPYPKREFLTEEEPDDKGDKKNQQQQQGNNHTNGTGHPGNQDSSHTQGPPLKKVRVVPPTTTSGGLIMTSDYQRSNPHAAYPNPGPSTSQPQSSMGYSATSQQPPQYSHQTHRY
Text: as §1

BLK = BLK (Homo sapiens (Human), UniProt P51451)
Text: as §1

Row | Compound | remaining binding at 1 µM (LTK) | remaining binding at 1 µM (MEK5) | remaining binding at 1 µM (NIK) | remaining binding at 1 µM (ITK) | remaining binding at 1 µM (LATS1) | remaining binding at 1 µM (FLT3(D835V)) | remaining binding at 1 µM (MTOR) | remaining binding at 1 µM (KIT(L576P)) | remaining binding at 1 µM (STK36) | remaining binding at 1 µM (ASK1) | remaining binding at 1 µM (MLCK) | remaining binding at 1 µM (FLT3(K663Q)) | remaining binding at 1 µM (LRRK2) | remaining binding at 1 µM [1] | remaining binding at 1 µM (LYN) | remaining binding at 1 µM (GRK3) | remaining binding at 1 µM (PAK3) | remaining binding at 1 µM (LATS2) | remaining binding at 1 µM (MAP4K5) | remaining binding at 1 µM (TAOK1) | other results
1 | CCN1CCN(Cc2ccc(Nc3nc4ccc(Oc5ccnc(NC(C)=O)c5)cc4n3C)cc2C(F)(F)F)CC1 [Compound I-2] | 61% | 59% | 100% | 97% | 42% | 51% | 100% | 0.2% | 79% | 77% | 100% | 16% | 100% | 90% | 44% | 100% | 54% | 100% | 89% | 77% | remaining binding at 1 µM (NEK9): 87%; remaining binding at 1 µM (MLK1): 100%; remaining binding at 1 µM (YES): 82%; remaining binding at 1 µM (VPS34): 87%; remaining binding at 1 µM (MAP3K2): 21%; remaining binding at 1 µM (STK35): 100%; remaining binding at 1 µM (GSK3A): 85%; remaining binding at 1 µM (ERK8): 79%; remaining binding at 1 µM (ABL2): 32%; remaining binding at 1 µM (CDK9): 100%; remaining binding at 1 µM (GAK): 100%; remaining binding at 1 µM (PRKCH): 100%; remaining binding at 1 µM (MAST1): 74%; remaining binding at 1 µM (PIK3CA(I800L)): 75%; remaining binding at 1 µM (MAP4K2): 100%; remaining binding at 1 µM (EGFR(G719S)): 96%; remaining binding at 1 µM (FLT3): 15%; remaining binding at 1 µM (SRPK2): 92%; remaining binding at 1 µM (CDK8): 17%; remaining binding at 1 µM (BLK): 49%
2 | CCN1CCN(Cc2ccc(Nc3nc4ccc(Oc5ccnc(NC(C)=O)c5)c(C)c4n3C)cc2C(F)(F)F)CC1 [Compound I-6, N-(4-(2-(4-((4-ethylpiperazin-1-yl)methyl)-3-(trifluoromethyl)phenylamino)-1,7-dimethyl-1H-benzo[d]imidazol-6-yloxy)pyridin-2-yl)acetamide] | 22% | 34% | 100% | 98% | 95% | 40% | 100% | 0% | 92% | 97% | 97% | 9.3% | 86% | 100% | 12% | 79% | 77% | 100% | 88% | 46% | remaining binding at 1 µM (NEK9): 68%; remaining binding at 1 µM (MLK1): 100%; remaining binding at 1 µM (YES): 84%; remaining binding at 1 µM (VPS34): 100%; remaining binding at 1 µM (MAP3K2): 0.6%; remaining binding at 1 µM (STK35): 100%; remaining binding at 1 µM (GSK3A): 93%; remaining binding at 1 µM (ERK8): 75%; remaining binding at 1 µM (ABL2): 5.3%; remaining binding at 1 µM (CDK9): 96%; remaining binding at 1 µM (GAK): 98%; remaining binding at 1 µM (PRKCH): 87%; remaining binding at 1 µM (MAST1): 100%; remaining binding at 1 µM (PIK3CA(I800L)): 98%; remaining binding at 1 µM (MAP4K2): 68%; remaining binding at 1 µM (EGFR(G719S)): 100%; remaining binding at 1 µM (FLT3): 1%; remaining binding at 1 µM (SRPK2): 75%; remaining binding at 1 µM (CDK8): 10%; remaining binding at 1 µM (BLK): 17%
